Results taken from patent US20040224031A1, “Combination of amines and vanadium (IV)/(V) compounds for the treatment and/or prevention of diabetes mellitus” (priority 2003, published 2004).

How the values were obtained:
isolated rat adipocytes = assay: Hexose transport (2-deoxyglucose uptake) in isolated rat adipocytes; type: cell-based; parameters: stimulation of 2-deoxyglucose uptake, agent alone: dose or concentration left out as unconfirmed; conditions: for glucose transport (2-DG uptake): 45 min preincubation of fat cells with increasing concentrations; for stimulation of 2-deoxyglucose uptake, agent alone: benzylamine or orthovanadate alone, 10-min uptake
Description: Adipocyte isolation. […] Adipose cells isolated in such a way were used in subsequent studies.
Hexose transport. After a preincubation period of 45 min at 37° C. in vials containing 400 μl of cell suspension in KRBH with the tested products, [^3H]-2-deoxyglucose was added at a final concentration of 0.1 mM (approx. 1,300,000 d.p.m./vial). […] After centrifugation, the fat cells (upper part of the tubes) were placed in scintillation vials and the incorporated radioactivity was counted.

[1] = test system: streptozotocin-induced diabetic rats; assay: Chronic administration in streptozotocin-induced diabetic rats; type: in vivo, rat; conditions: for food and water consumption / weight of epididymal adipose tissue (adiposity): chronic treatment of diabetic rats
Source text: A group of animals was also subjected to daily i.p. injection of vanadate (50 μmol/kg body wt) for two weeks.
In other studies, rats were daily injected intraperitoneally with 25 μmol/kg vanadate for the first week and with 50 μmol/kg for the second week.

GLUT4 = test system: GLUT4; parameters: increase in the abundance of GLUT4 in plasma membrane preparations / abundance of GLUT4 in plasma membranes, agent alone: dose or concentration left out as unconfirmed; conditions: for abundance of GLUT4 in plasma membranes, agent alone: benzylamine or orthovanadate alone; for amount of GLUT4 protein in the plasma membrane (PM): n=3, orthovanadate 0.1 mM
Description: To verify whether the stimulation of glucose transport in rat adipocytes may be explained by a translocation of the insulin-sensitive glucose transporters from an internal site to the plasma membrane, as it is known for insulin, the amount of GLUT4 protein was determined in plasma membrane (PM) and low density microsome (LDM) fractions.

[2] = 1 mM H2O2, preincubation 45 min, n=23
[3] = vanadate i.p. 25 μmol/kg first week and 50 μmol/kg second week, benzylamine 84 μmol/kg, FIG. 6, FIG. 7

OO [H2O2, hydrogen peroxide]
effect relative to the maximal insulin effect (isolated rat adipocytes; [2]): 46% | factor multiplying basal hexose transport (isolated rat adipocytes; [2]): 5.0±0.8 fold | glucose transport (2-DG uptake) (isolated rat adipocytes; 5-min 2-DG uptake, FIG. 1): dose-dependently stimulated

NCc1ccccc1 [benzylamine]
stimulation of 2-deoxyglucose uptake, agent alone (isolated rat adipocytes; FIG. 3): no stimulatory effect | food and water consumption [1]: not detected | weight of epididymal adipose tissue (adiposity) [1]: not detected | glycemia [1, 3]: remained hyperglycemic | abundance of GLUT4 in plasma membranes, agent alone (GLUT4; 45 minutes incubation): did not alter

CNC[C@H](O)c1cccc(O)c1 [phenylephrine]
glucose transport (2-DG uptake) (isolated rat adipocytes; 5-min 2-DG uptake, FIG. 1): not activated

NNC(N)=O [semicarbazide]
effect on glucose transport stimulated by 1 mM hydrogen peroxide plus 0.1 mM orthovanadate (isolated rat adipocytes): unaffected | inhibition at 100 µM (isolated rat adipocytes; Rattus norvegicus, Adipocyte, read-out: inhibition of the glucose transport promoted by 1 mM tyramine plus orthovanadate): 59 ± 7% | effect on stimulation of 2-deoxyglucose uptake by benzylamine and orthovanadate (isolated rat adipocytes; semicarbazide (1 mM), FIG. 3): abolished

NCCc1c[nH]c2ccc(O)cc12 [serotonin]
glucose transport (2-DG uptake) (isolated rat adipocytes; 5-min 2-DG uptake, FIG. 1): not activated

NCCc1ccc(O)cc1 [tyramine]
glucose transport (2-DG uptake) (isolated rat adipocytes; 5-min 2-DG uptake, FIG. 1): not activated | synergism on glucose transport with low, ineffective doses of insulin (10 pM) or hydrogen peroxide (0.01 mM) (isolated rat adipocytes; not shown): no synergism

insulin: hormone used as positive control for glucose transport and GLUT4 translocation
increase of basal 2-DG uptake (isolated rat adipocytes; insulin, 45 min preincubation, 5-min 2-DG uptake, FIG. 1): twelve-fold | GLUT4 abundance in light microsomes (GLUT4): reduction | increase in the abundance of GLUT4 in plasma membrane preparations (GLUT4; 45 minutes incubation): 3.3 fold | content of β1-integrin, a constitutive PM protein (GLUT4; Example 2, plasma membrane fraction): without any significant change | plasma membrane marker β1-integrin (GLUT4; Example 4, 45 minutes incubation): remained unaltered | decrease of basal GLUT4 content of LDM (GLUT4; Western blot, low density microsomes): 29% | amount of GLUT4 protein in the plasma membrane (PM) (GLUT4; Western blot): 252±43%

sodium orthovanadate
stimulation of glucose transport as % of that of 100 nM insulin (isolated rat adipocytes; 1 mM tyramine, 0.1 mM orthovanadate, 100 nM insulin, n=40): 5±1% | stimulation of 2-deoxyglucose uptake, agent alone (isolated rat adipocytes; FIG. 3): did not stimulate | effect on basal or insulin-stimulated glucose transport (isolated rat adipocytes; orthovanadate alone 0.1 mM, FIG. 2): did not affect | food and water consumption [1]: not detected | weight of epididymal adipose tissue (adiposity) [1]: not detected | glycemia ([1]; vanadate 50 μmol/kg daily i.p. for two weeks, benzylamine 84 μmol/kg/day by osmotic minipumps, FIG. 5): moderate reduction | glycemia [1, 3]: remained hyperglycemic | abundance of GLUT4 in plasma membranes, agent alone (GLUT4; 45 minutes incubation): did not alter | amount of GLUT4 protein in the plasma membrane (PM) (GLUT4; Western blot): 103±8%
